Results on seven molecules are retold here after patent US20020026053A1, “Novel 3-(substituted) -2- indolinones compounds and use thereof as inhibitors of protein kinase activity” (priority 1997, published 2002).

Molecules are shown by their SMILES.

In the assay the target is T1, Met receptor (EGFR/Met chimeric cells, EMR) (Homo sapiens, UniProt P08581).
T1 construct: expressed in transfected cells; the other entry of the earlier key: EGFR (P00533, Epidermal growth factor receptor)
Briefly: Met Autophosphorylation Assay. The class given is biochemical. The method in brief:
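Transiently transfected EGFR/Met chimeric (EMR) cells were lysed in HNTG with 1 mM PMSF. Met was captured on plates coated with goat anti-rabbit IgG, then rabbit anti-Met (C-28), using 90 μg lysate/100 μl for 60 min at room temperature. Phosphotyrosine was read by ELISA.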

T1 sequence (P08581 with tags, fused parts or gaps): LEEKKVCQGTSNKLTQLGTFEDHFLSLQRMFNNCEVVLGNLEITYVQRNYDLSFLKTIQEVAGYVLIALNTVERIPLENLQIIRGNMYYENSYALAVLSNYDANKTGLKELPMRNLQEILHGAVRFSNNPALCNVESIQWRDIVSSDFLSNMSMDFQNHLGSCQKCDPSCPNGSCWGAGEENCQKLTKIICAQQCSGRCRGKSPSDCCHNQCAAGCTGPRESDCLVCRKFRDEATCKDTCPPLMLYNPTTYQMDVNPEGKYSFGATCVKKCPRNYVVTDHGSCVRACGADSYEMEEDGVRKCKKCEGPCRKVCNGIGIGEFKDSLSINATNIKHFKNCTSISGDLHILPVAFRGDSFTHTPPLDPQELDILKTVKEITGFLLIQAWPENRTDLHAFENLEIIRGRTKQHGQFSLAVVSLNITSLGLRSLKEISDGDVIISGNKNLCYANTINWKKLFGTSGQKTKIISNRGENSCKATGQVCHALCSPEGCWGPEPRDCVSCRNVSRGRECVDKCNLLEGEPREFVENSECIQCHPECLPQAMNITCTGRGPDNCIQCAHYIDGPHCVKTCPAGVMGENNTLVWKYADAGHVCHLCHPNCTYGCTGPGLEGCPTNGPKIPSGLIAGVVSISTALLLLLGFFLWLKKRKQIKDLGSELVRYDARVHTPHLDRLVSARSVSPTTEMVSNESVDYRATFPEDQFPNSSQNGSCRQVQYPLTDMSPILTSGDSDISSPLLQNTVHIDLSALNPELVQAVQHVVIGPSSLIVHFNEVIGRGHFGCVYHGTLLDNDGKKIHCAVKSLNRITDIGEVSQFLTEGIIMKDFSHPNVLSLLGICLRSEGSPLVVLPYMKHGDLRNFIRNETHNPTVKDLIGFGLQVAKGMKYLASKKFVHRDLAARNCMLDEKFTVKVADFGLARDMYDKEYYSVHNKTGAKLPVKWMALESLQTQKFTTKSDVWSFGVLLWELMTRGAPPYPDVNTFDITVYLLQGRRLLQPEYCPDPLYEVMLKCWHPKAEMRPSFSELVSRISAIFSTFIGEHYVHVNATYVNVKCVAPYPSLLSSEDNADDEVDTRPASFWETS

`O=C1Nc2ccc(S(=O)(=O)N3CCOCC3)cc2C1=Cc1ccccc1C(F)(F)F` [10736/F03]: the “Met Kinase % Inhibition (P.130)” value came out at 23.9%.

As to `Cc1cccc(C=C2C(=O)Nc3ccc(S(=O)(=O)N4CCOCC4)cc32)c1` [10736/F04], the “Met Kinase % Inhibition (P.130)” value is listed as 45.2%.

For `Cc1ccc(C=C2C(=O)Nc3ccc(S(=O)(=O)N4CCOCC4)cc32)cc1` [10736/F05], the “Met Kinase % Inhibition (P.130)” value turned out to be 19.8%.

For `O=C1Nc2ccc(S(=O)(=O)N3CCOCC3)cc2C1=Cc1cccc(Cl)c1` [10736/F06], the “Met Kinase % Inhibition (P.130)” value is reported as 49.0%.

In the case of `O=C1Nc2ccc(S(=O)(=O)N3CCOCC3)cc2C1=Cc1cccc(F)c1` [10736/F07], the “Met Kinase % Inhibition (P.130)” value is 10.7%.

`O=C1Nc2ccc(S(=O)(=O)N3CCOCC3)cc2C1=Cc1ccccc1F` [10736/F08]: the “Met Kinase % Inhibition (P.130)” value is recorded as −0.2%.

For the molecule `CCc1ccc(C=C2C(=O)Nc3ccc(S(=O)(=O)N4CCOCC4)cc32)cc1` [10736/F09], the “Met Kinase % Inhibition (P.130)” value amounted to 40.2%.
